Measurements: the METLIN SMRT retention time set (Domingo-Almenara et al. 2019)

assay: gradient 5% acetonitrile 3 min, to 50% in 2 min, to 85% in 15 min, held 3 min, 100 µL/min; conditions: column: Zorbax Extend-C18 2.1 x 50 mm; eluents: water / acetonitrile, 0.1% formic acid
Outline: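 Pure standards were analyzed in mixtures of ~100 molecules using HPLC coupled to a quadrupole time-of-flight mass spectrometer, in both positive and negative ionization mode. Separation used a Zorbax Extend-C18 column (2.1 × 50 mm, 1.8 μm) at 100 μL/min, with water and acetonitrile each containing 0.1% formic acid. Dead and dwell volumes were 40 μL and 900 μL, and data were collected over 3 months. Retention time was read from computationally picked adduct peaks, each inspected manually.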

| Structure (SMILES) | RP-LC retention time [s] |
| --- | --- |
| CCn1ccc(C(=O)NC2CCCC2)n1 | 709 |
| CCc1noc(NC(C)=O)c1-c1ccc(C)c(S(=O)(=O)Nc2c(Cl)cc(OC)cc2OC)c1 | 827 |
| O=C(C1CCN(c2cncnc2N2CCCC2)CC1)N1CCCCC1 | 613 |
| O=C(NC1CC1)C1CCCN(c2cnc3nccnc3c2)C1 (stereo not given) | 592 |
| CCCNC(=O)C1CCCN(c2nc3ncn(CC(=O)Nc4cc(C)cc(C)c4)c(=O)c3s2)C1 (stereo not given) | 759 |
| O=C(c1ccc2cc[nH]c2c1)N1CCN(C(=O)c2nnn3c2COC(c2ccccc2)C3)CC1 (stereo not given) | 773 |
| O=C(c1cnccn1)N1CCC(N2C(=O)C(OCC3CC3)C23CCOCC3)CC1 (stereo not given) | 607 |
| O=C(Nc1ccccc1)N1CCC(N2C[C@H]3C[C@H](C2)[C@H]2CCCC(=O)N2C3)CC1 | 590 |
| COc1ccc(NC(=O)Nc2nccn(-c3ccc(C(C)C)cc3)c2=O)cc1OC | 1010 |
| Cc1cc(N2CCN(C(=O)c3ccc(Br)o3)CC2)nc(N2CCOCC2)n1 | 599 |
| CCS(=O)(=O)c1ccc2c(c1)N(Cc1nc(-c3ccc4c(c3)OCO4)no1)C(=O)CO2 | 859 |
| COc1cccc2c1OC1(C)CC2C(S(=O)(=O)c2ccc(C(C)C)cc2)C(=O)N1 (stereo not given) | 938 |
| Cn1c(N2CCCN(C(=O)CCn3c(C4CCCCC4)nc4ccccc43)CC2)cc(=O)n(C)c1=O | 610 |
| CCN(CC)CCNC(=O)C(C)n1c2ccccc2c2cnn(C)c(=O)c21 (stereo not given) | 609 |
| Cc1cc(C)c(NC(=O)C2CCCN(c3nc4ccccc4nc3C(F)(F)F)C2)c(C)c1 (stereo not given) | 701 |
| COc1ccc(N2CCN(CC(=O)N3CCC(C(N)=O)CC3)CC2)cc1 | 885 |
| CCCNC(=O)C1CCN(c2ccc(SCC(=O)Nc3ccc(CC)cc3)nn2)CC1 | 694 |
| Cc1ccc(C)c(NC(=O)C(=O)NCC(c2ccc3c(c2)OCO3)N2CCOCC2)c1 (stereo not given) | 693 |
| COc1ccc2c(c1)C1(CCN(C(=O)NC3CCCCC3)C1)C(=O)N2C (stereo not given) | 778 |

| Structure (SMILES) | RP-LC retention time [s] |
| --- | --- |
| O=C(C1CCCN(Cc2nc(-c3cccnc3)no2)C1)N1CCc2ccccc21 (stereo not given) | 595 |
| CCN1CCCC1CNC(=O)Cn1c(=O)c2cccn2c2ccc(F)cc21 (stereo not given) | 614 |
| CCOc1ccc(NC(=O)N2CCc3cn(CC)c4cccc(c34)C2)cc1 | 952 |
| CCOC(=O)C1=C(CN2CCC(N3CCCCC3)CC2)NC(=O)NC1c1ccc(Cl)cc1 (stereo not given) | 599 |
| COc1cccc(NC(=O)N2CCC3(CC2)N=C(c2cccc(Cl)c2)C(=O)N3)c1 | 878 |
| Cc1ccc(NC(=O)CN(C)S(=O)(=O)c2cc(C(=O)N3CCC(C)CC3)n(C)c2)cc1Cl | 998 |
| O=C(Nc1cnc(N2CCCCC2)nc1)c1ccc(Cl)s1 | 1020 |
| O=C(NC1CCCCCC1)C1CC(=O)N(CCc2c[nH]c3ccc(Cl)cc23)C1 (stereo not given) | 871 |
| CCCn1c(=O)c2sc(N3CCCC3)nc2n(CC(=O)NCc2cccs2)c1=O | 755 |
| c1ccc2c(-c3nnc(C4CC4)o3)nnc(NC3CCCCC3)c2c1 | 793 |
| Cc1ncoc1C(=O)N1CC(F)(F)C[C@H]1c1nc(C2CC2)no1 | 768 |
| Cc1ccc(-c2nnc(Cc3nc(-c4cccc(Cl)c4)no3)o2)cc1C | 1230 |
| COC(=O)c1ccc(OC(=O)N(C)c2ccccc2)cc1 | 879 |
| Cc1ccc(-c2ccc(-n3nc(C)c(S(=O)(=O)Nc4ccc5c(c4)OCCO5)c3C)nn2)cc1C | 1100 |
| COc1ccc(C2Cn3nnc(-c4nc(-c5ccccc5Cl)no4)c3CO2)cc1 (stereo not given) | 1150 |
| COc1ccc(C2C(C(=O)N3CC(C)CC(C)C3)CCC(=O)N2c2ccc(OC)cc2)cc1 (stereo not given) | 871 |
| COc1ccccc1-c1cc2c(=O)n(Cc3nc(-c4ccccc4OC)oc3C)ccn2n1 | 1020 |
| Cn1nc(-c2nc(-c3ccccc3F)no2)c2c1CCN(C(=O)NC1CCCC1)C2 | 800 |
| Cn1c(=O)sc2cc(S(=O)(=O)N3CCC(C(=O)N4CCc5ccccc54)CC3)ccc21 | 933 |

Now from value to compound:

| RP-LC retention time [s] | Structure (SMILES) |
| --- | --- |
| 884 | O=C(NCc1ccc2c(c1)OCCCO2)c1ccc(Br)cc1 |
| 853 | CC1Cc2ccc(CNC(=O)NC(C)(C)C)cc2N1C(=O)c1ccccc1 (stereo not given) |
| 1210 | Cc1ccc(-c2nc(C)cc(SCC(=O)Nc3cc(C)ccc3C)n2)cc1 |
| 946 | Cc1ccc(-n2cccc2CC(=O)NCc2ccc3c(c2)OCO3)cc1 |
| 676 | COc1cccc(Cn2c(C)c(CNCc3ccccn3)c(C(=O)O)c2C)c1 |
| 1100 | O=C(Cn1cccc1-c1nc(-c2ccccc2)no1)Nc1ccc2c(c1)CCC2 |
| 806 | O=C(CCc1conc1-c1ccccc1)NCc1ccc2c(c1)OCO2 |
| 666 | O=C(Cc1nc(-c2ccccn2)n[nH]1)Nc1ccc(Cl)cc1 |
| 766 | O=C(Cc1c(F)cccc1Cl)N1C[C@@H]2C[C@H]1C[C@@H]2NS(=O)(=O)c1cccs1 |
| 749 | N#Cc1cccc(C(=O)N2CCN(c3cc(-c4ccccc4)[nH]n3)CC2)c1 |
| 652 | O=C(CNC(=O)c1cccc(Br)c1)NCc1cscn1 |
| 606 | CC(=O)Nc1ccc(CCc2nc3ccc(C(=O)NCc4ccco4)cc3[nH]2)cc1 |
| 846 | CC12CC(NC(=O)N1c1cccc(C(=O)NCc3ccco3)c1)c1cc(Br)ccc1O2 (stereo not given) |
| 842 | O=C(CSc1ccc(NC(=O)c2cccs2)nn1)Nc1ccccc1C(F)(F)F |
| 742 | CCn1cnc2ccc(-c3noc(COc4ccccc4)n3)cc21 |
| 924 | CCOC(=O)c1cccc(NC(=O)c2cnc(-c3ccccc3)nc2-c2ccncc2)c1 |
| 902 | Cn1cc(-c2cc3n(n2)CCC(=O)N3CC(=O)Nc2ccc(Cl)cc2)c2ccccc21 |
| 1140 | CCOc1ccc(-n2cc(C(=O)OCC(=O)OC(C)C)c3ccccc3c2=O)cc1 |
| 1060 | Cc1ccc(N2C(=O)N(Cc3ccccc3)S(=O)(=O)c3cccnc32)cc1 |
| 704 | CN(C)c1ccc(CNC(=O)Cc2cn(C)c3ncccc23)cc1 |
| 1220 | Cc1sc(-c2nc(C(C)C)cs2)cc1S(=O)(=O)Nc1cc(F)ccc1F |
| 894 | O=C(NCc1cccc(F)c1)c1ccc(-c2cccs2)nc1 |
| 720 | COc1ccc(-c2nc3ccccn3c2NC(=O)c2ccc(Cl)c([N+](=O)[O-])c2)cc1 |
| 575 | Cc1nc2ccn(Cc3cccnc3)c(=O)c2cc1C(=O)NCc1ccco1 |
| 1120 | CC(=O)N1CCc2[nH]c3ccc(C(=O)NCc4ccc(N5CCCC5)cc4)cc3c2C1 |
| 596 | CCN(CC)CCCNC(=O)c1cc2n(n1)CC(C)(C(=O)NCc1ccc(F)cc1)N(C)C2=O (stereo not given) |
| 700 | CC(C)Cn1c(CCNC(=O)c2ccc(F)cc2)nc2cccnc21 |
